# Data as given in ChEMBL document CHEMBL3272269, “Synthesis and antileukemic activities of furanyl, pyranyl, and ribosyl derivatives of 4-(3,3-dimethyl-1-triazeno)imidazole-5-carboxamide and 3-(3,3-dimethyl-1-triazeno)pyrazole-4-carboxamide” (J Med Chem, 1979).
# Activity calls are given as the source filed them. The calls are words filed in the database; no cut-off is given here.
# Key:
# Mus musculus [1] = assay: Toxicity in mouse L1210 cells allografted BDF1 mouse assessed as reduction in body weight at 120 mg/kg administered on day 1 followed by 5 injections with 1 day interval; type: organism-based; design: dose 120 mg/kg; conditions: in vivo, 24 h
# Mus musculus [2] = assay: Toxicity in mouse L1210 cells allografted BDF1 mouse assessed as reduction in body weight at 80 mg/kg administered on day 1 followed by 5 injections with 1 day interval; type: organism-based; design: dose 80 mg/kg; conditions: in vivo, 24 h
# Mus musculus [3] = assay: Toxicity in mouse L1210 cells allografted BDF1 mouse assessed as reduction in body weight at 53 mg/kg administered on day 1 followed by 5 injections with 1 day interval; type: organism-based; design: dose 53 mg/kg; conditions: in vivo, 24 h
# L1210 [4] = assay: Antitumor activity against mouse L1210 cells allografted in BDF1 mouse assessed as survival at 180 mg/kg administered on day 1 followed by 5 injections with 1 day interval; type: functional, organism-based; design: dose 180 mg/kg
# L1210 [5] = assay: Antitumor activity against mouse L1210 cells allografted in BDF1 mouse assessed as survival at 125 mg/kg administered on day 1 followed by 5 injections with 1 day interval; type: functional, organism-based; design: dose 125 mg/kg
# L1210 [6] = assay: Antitumor activity against mouse L1210 cells allografted in BDF1 mouse assessed as survival at 80 mg/kg administered on day 1 followed by 5 injections with 1 day interval; type: functional, organism-based; design: dose 80 mg/kg
# L1210 [7] = assay: Antitumor activity against mouse L1210 cells allografted in BDF1 mouse assessed as survival at 53 mg/kg administered on day 1 followed by 5 injections with 1 day interval; type: functional, organism-based; design: dose 53 mg/kg
# L1210 [8] = assay: Antitumor activity against mouse L1210 cells allografted in BDF1 mouse assessed as increase in survival at 180 mg/kg administered on day 1 followed by 5 injections with 1 day interval relative to control; type: functional
# L1210 [9] = assay: Antitumor activity against mouse L1210 cells allografted in BDF1 mouse assessed as increase in survival at 125 mg/kg administered on day 1 followed by 5 injections with 1 day interval relative to control; type: functional
# L1210 [10] = assay: Antitumor activity against mouse L1210 cells allografted in BDF1 mouse assessed as increase in survival at 120 mg/kg administered on day 1 followed by 5 injections with 1 day interval relative to control; type: functional
# L1210 [11] = assay: Antitumor activity against mouse L1210 cells allografted in BDF1 mouse assessed as increase in survival at 80 mg/kg administered on day 1 followed by 5 injections with 1 day interval relative to control; type: functional
# L1210 [12] = assay: Antitumor activity against mouse L1210 cells allografted in BDF1 mouse assessed as increase in survival at 53 mg/kg administered on day 1 followed by 5 injections with 1 day interval relative to control; type: functional
# Mus musculus [13] = assay: Toxicity in mouse L1210 cells allografted BDF1 mouse assessed as reduction in body weight at 180 mg/kg administered on day 1 followed by 5 injections with 1 day interval; type: organism-based; design: dose 180 mg/kg; conditions: in vivo, 24 h
# Mus musculus [14] = assay: Toxicity in mouse L1210 cells allografted BDF1 mouse assessed as reduction in body weight at 125 mg/kg administered on day 1 followed by 5 injections with 1 day interval; type: organism-based; design: dose 125 mg/kg; conditions: in vivo, 24 h
# L1210 [15] = assay: Antitumor activity against mouse L1210 cells allografted in mouse assessed as survival at 180 mg/kg administered on day 1 followed by 9 injections with 1 day interval; type: functional, organism-based; design: dose 180 mg/kg
# L1210 [16] = assay: Antitumor activity against mouse L1210 cells allografted in mouse assessed as survival at 109 mg/kg administered on day 1 followed by 9 injections with 1 day interval; type: functional, organism-based; design: dose 109 mg/kg
# L1210 [17] = assay: Antitumor activity against mouse L1210 cells allografted in mouse assessed as survival at 65 mg/kg administered on day 1 followed by 9 injections with 1 day interval; type: functional, organism-based; design: dose 65 mg/kg
# L1210 [18] = assay: Antitumor activity against mouse L1210 cells allografted in mouse assessed as increase in survival at 180 mg/kg administered on day 1 followed by 9 injections with 1 day interval relative to control; type: functional
# L1210 [19] = assay: Antitumor activity against mouse L1210 cells allografted in mouse assessed as increase in survival at 109 mg/kg administered on day 1 followed by 9 injections with 1 day interval relative to control; type: functional
# L1210 [20] = assay: Antitumor activity against mouse L1210 cells allografted in mouse assessed as increase in survival at 65 mg/kg administered on day 1 followed by 9 injections with 1 day interval relative to control; type: functional
# Mus musculus [21] = assay: Toxicity in mouse L1210 cells allografted mouse assessed as reduction in body weight at 200 mg/kg administered on day 1 followed by 5 injections with 1 day interval; type: organism-based; design: dose 200 mg/kg; conditions: in vivo, 24 h
# Mus musculus [22] = assay: Toxicity in mouse L1210 cells allografted mouse assessed as reduction in body weight at 100 mg/kg administered on day 1 followed by 5 injections with 1 day interval; type: organism-based; design: dose 100 mg/kg; conditions: in vivo, 24 h
# L1210 [23] = assay: Antitumor activity against mouse L1210 cells allografted in mouse assessed as survival at 200 mg/kg administered on day 1 followed by 5 injections with 1 day interval; type: functional, organism-based; design: dose 200 mg/kg
# L1210 [24] = assay: Antitumor activity against mouse L1210 cells allografted in mouse assessed as survival at 100 mg/kg administered on day 1 followed by 5 injections with 1 day interval; type: functional, organism-based; design: dose 100 mg/kg
# L1210 [25] = assay: Antitumor activity against mouse L1210 cells allografted in mouse assessed as increase in survival at 200 mg/kg administered on day 1 followed by 5 injections with 1 day interval relative to control; type: functional
# L1210 [26] = assay: Antitumor activity against mouse L1210 cells allografted in mouse assessed as increase in survival at 100 mg/kg administered on day 1 followed by 5 injections with 1 day interval relative to control; type: functional
# Mus musculus [27] = assay: Toxicity in mouse L1210 cells allografted mouse assessed as reduction in body weight at 50 mg/kg administered on day 1 followed by 5 injections with 1 day interval; type: organism-based; design: dose 50 mg/kg; conditions: in vivo, 24 h
# L1210 [28] = assay: Antitumor activity against mouse L1210 cells allografted in mouse assessed as survival at 50 mg/kg administered on day 1 followed by 5 injections with 1 day interval; type: functional, organism-based; design: dose 50 mg/kg
# L1210 [29] = assay: Antitumor activity against mouse L1210 cells allografted in mouse assessed as increase in survival at 50 mg/kg administered on day 1 followed by 5 injections with 1 day interval relative to control; type: functional
# Mus musculus [30] = assay: Toxicity in mouse L1210 cells allografted BDF1 mouse assessed as reduction in body weight at 400 mg/kg administered on day 1 followed by 3 injections with 4 day interval; type: organism-based; design: dose 400 mg/kg; conditions: in vivo, 96 h
# Mus musculus [31] = assay: Toxicity in mouse L1210 cells allografted BDF1 mouse assessed as reduction in body weight at 200 mg/kg administered on day 1 followed by 3 injections with 4 day interval; type: organism-based; design: dose 200 mg/kg; conditions: in vivo, 96 h
# Mus musculus [32] = assay: Toxicity in mouse L1210 cells allografted BDF1 mouse assessed as reduction in body weight at 100 mg/kg administered on day 1 followed by 3 injections with 4 day interval; type: organism-based; design: dose 100 mg/kg; conditions: in vivo, 96 h
# L1210 [33] = assay: Antitumor activity against mouse L1210 cells allografted in mouse assessed as survival at 400 mg/kg administered on day 1 followed by 3 injections with 4 day interval; type: functional, organism-based; design: dose 400 mg/kg
# L1210 [34] = assay: Antitumor activity against mouse L1210 cells allografted in mouse assessed as survival at 200 mg/kg administered on day 1 followed by 3 injections with 4 day interval; type: functional, organism-based; design: dose 200 mg/kg
# L1210 [35] = assay: Antitumor activity against mouse L1210 cells allografted in mouse assessed as survival at 100 mg/kg administered on day 1 followed by 3 injections with 4 day interval; type: functional, organism-based; design: dose 100 mg/kg
# L1210 [36] = assay: Antitumor activity against mouse L1210 cells allografted in mouse assessed as increase in survival at 400 mg/kg administered on day 1 followed by 3 injections with 4 day interval relative to control; type: functional
# L1210 [37] = assay: Antitumor activity against mouse L1210 cells allografted in mouse assessed as increase in survival at 200 mg/kg administered on day 1 followed by 3 injections with 4 day interval relative to control; type: functional
# L1210 [38] = assay: Antitumor activity against mouse L1210 cells allografted in mouse assessed as increase in survival at 100 mg/kg administered on day 1 followed by 3 injections with 4 day interval relative to control; type: functional
smiles,measurement,setting,value
CN(C)/N=N/c1[nH]cnc1C(N)=O [DACARBAZINE],Activity,Mus musculus [1],2.2 g
same,Activity,Mus musculus [2],2 g
same,Activity,Mus musculus [3],0.8 g
same,Activity,L1210 [4],Active
same,Activity,L1210 [5],Active
same,Activity,L1210 [6],Active
same,Activity,L1210 [7],Active
same,T/C,L1210 [8],142%
same,T/C,L1210 [9],147%
same,T/C,L1210 [10],157%
same,T/C,L1210 [11],147%
same,T/C,L1210 [12],126%
same,Activity,Mus musculus [13],2.6 g
same,Activity,Mus musculus [14],2.1 g
CN(C)/N=N/c1n[nH]cc1C(N)=O,Activity,L1210 [15],Active
same,Activity,L1210 [16],Active
same,Activity,L1210 [17],Active
same,T/C,L1210 [18],134%
same,T/C,L1210 [19],176%
same,T/C,L1210 [20],142%
CN(C)/N=N/c1ncn(C2CCCO2)c1C(N)=O (centres undefined),Activity,Mus musculus [21],4.3 g
same,Activity,Mus musculus [22],1.9 g
same,Activity,L1210 [23],Active
same,Activity,L1210 [24],Active
same,T/C,L1210 [25],115%
same,T/C,L1210 [26],125%
CN(C)/N=N/c1nn(C2CCCO2)cc1C(N)=O (centres undefined),Activity,Mus musculus [21],3.7 g
same,Activity,Mus musculus [22],2.3 g
same,Activity,Mus musculus [27],1.8 g
same,Activity,L1210 [23],Active
same,Activity,L1210 [24],Active
same,Activity,L1210 [28],Active
same,T/C,L1210 [25],134%
same,T/C,L1210 [26],141%
same,T/C,L1210 [29],129%
CN(C)/N=N/c1nn(C2CCCCO2)cc1C(N)=O (centres undefined),Activity,Mus musculus [30],2.9 g
same,Activity,Mus musculus [31],1 g
same,Activity,Mus musculus [32],0.9 g
same,Activity,L1210 [33],Active
same,Activity,L1210 [34],Active
same,Activity,L1210 [35],Active
same,T/C,L1210 [36],119%
same,T/C,L1210 [37],108%
same,T/C,L1210 [38],108%
